Test results published in patent US6504058B1 (priority 1997, dated 2003).

Assays:
Pyricularia oryzae = format: in vivo, Pyricularia oryzae (on rice seedlings); conditions: 200 ppm test suspension sprayed to run-off (equivalent to 500 g/ha) on rice seedlings; 100 = 100% disease control, 0 = no control; # = significant activity
Botrytis cinerea = assay: Test E: gray mold, preventive spray on cucumber seedlings, disease rating; format: in vivo, Botrytis cinerea (on cucumber seedlings); conditions: 200 ppm test suspension sprayed to run-off (equivalent to 500 g/ha) on cucumber seedlings; 100 = 100% disease control, 0 = no control; # = significant activity
Procedure, shortened: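 Cucumber seedlings sprayed to run-off with 200 ppm suspension (equivalent to 500 g/ha), inoculated next day with B. cinerea spores. Kept 48 h saturated at 20 °C, then 5 days in growth chamber at 20 °C; disease control rated 0–100 relative to controls.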

Phytophthora infestans = format: in vivo, Phytophthora infestans (on tomato seedlings); conditions: 200 ppm test suspension sprayed to run-off (equivalent to 500 g/ha) on tomato seedlings; 100 = 100% disease control, 0 = no control; # = significant activity
[1] = tested on: Erysiphe graminis f. sp. tritici; assay: Test A: wheat powdery mildew, preventive spray on wheat seedlings, disease rating; format: in vivo, Erysiphe graminis f. sp. tritici (on wheat seedlings); conditions: 200 ppm test suspension sprayed to run-off (equivalent to 500 g/ha) on wheat seedlings; 100 = 100% disease control, 0 = no control; # = significant activity
Procedure, shortened: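 Compounds at 200 ppm (acetone 3%, 250 ppm Trem 014 in water; equivalent to 500 g/ha) sprayed to run-off on wheat seedlings, inoculated with spore dust the following day. Plants held at 20° C. for 7 days, then rated 0–100% disease control relative to untreated controls.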

Puccinia recondita = assay: Test B: wheat leaf rust, preventive spray on wheat seedlings, disease rating; format: in vivo, Puccinia recondita (on wheat seedlings); conditions: 200 ppm test suspension sprayed to run-off (equivalent to 500 g/ha) on wheat seedlings; 100 = 100% disease control, 0 = no control; # = significant activity
Procedure, shortened: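 Wheat seedlings were sprayed to run-off with 200 ppm suspensions (≈500 g/ha; 3% acetone, 250 ppm Trem 014) and inoculated with Puccinia recondita spores the next day. Plants were held 24 h saturated at 20 °C, then 6 days at 20 °C. Disease control was rated 0-100 relative to untreated controls.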

## CC(NC(=O)C1CC(C)(Cl)C1)C(Oc1cc(F)ccc1C#N)c1ccccc1 (centres unmarked) [compound 34]
Pyricularia oryzae
  Test C disease control rating (rice blast): 52%
Botrytis cinerea
  Test E disease control rating (gray mold): 0 (a rating of 0 indicates no disease control (relative to the controls))
Phytophthora infestans
  Test D disease control rating (potato and tomato late blight): 45%
[1]
  Test A disease control rating (wheat powdery mildew): 59%
Puccinia recondita
  Test B disease control rating (wheat leaf rust): 0 (a rating of 0 indicates no disease control (relative to the controls))
